Measurements reported in patent US20230337677A1, “ARYL AND PYRIDYL AMIDE PESTICIDES AND COMPOSITIONS THEREOF” (University of Florida Research Foundation, Incorporated, priority 2019, published 2023).

Key:
Format in all cases: in vivo
[1] = system: Aedes aegypti mosquitoes, insecticide-susceptible Orlando strain; details: 1 h; for 1 h Repellency EC50, μg/cm^2: (OR); for 1 h % Repellency, 100 μg/cm^2: screened at 100 μg/cm^2, strain not given
Procedure: The tubes as shown were held horizontally on the bench.
For assessing behavioral repellency (FIG. 1), Aedes aegypti mosquitoes were used from the insecticide-susceptible Orlando strain and the pyrethroid-resistant Puerto Rico strain. Sixteen female mosquitoes were transferred to a glass tube (12.5 cm long, 2.5 cm outer diameter) with the ends covered with netting. Each compound was dissolved in 1 mL of acetone and serial dilutions ranging from 30-0.01 μg/ml were made. Circular filter papers (5 cm^2) were saturated with 50 μL of each concentration and allowed 10 min for solvent evaporation. The filter papers were then placed in clear conical polypropylene caps and fixed to the end of the glass tubes. The netting prevented mosquito contact with the filter paper. The tubes were then aligned with a mark denoting the midline and the proportion of mosquitoes on the chemically treated side was scored for up to 60 min. At the end of the test, the tube was placed in a cage and the ability of the mosquitoes to fly out of the tube was assessed for 30 min. […] This post-test evaluated whether any non-responding mosquitoes (not repelled) resulted from intoxication or disorientation from the test chemical. For assessment of lethality, insects were held for 24 hr under constant exposure in glass tubes having treated filter papers.
Compounds were first screened at 100 μg/cm^2 for repellency and 24 h mortality.

[2] = system: Anopheles gambiae Akron kdr (Akdr) strain, resistant to pyrethroids; assay: Topical toxicity (24 hour mortality), An. gambiae Akdr; details: for An. gambiae RR (resistance ratio): 24 h LD50 resistant strain (AKDR)/24 h LD50 susceptible strain (G3); for An. gambiae AKDR LD50: topical application, 24 h mortality, female adults, pyrethroid-resistant Akdr strain
Procedure: (§1) The Aedes aegypti strains Orlando (sensitive) as well as the Puerto Rico (PR, resistant to permethrin) were used. The Anopheles gambiae (G3 sensitive strain, as well as Akron kdr (Akdr) strain, resistant to pyrethroids were also assessed. The larvae were provided by the USDA, Gainesville Fl, and raised in a pan with tap water maintained at 28° C. Larvae were fed a ground liver and yeast mixture, and pupae were placed in emergence cages. Adults were held at 28° C. and provided with cotton balls soaked in 10% sugar water for rearing and for all bioassays.
(§2) Female adults from 3 to 6 days were used for the experiments. The drug was dissolved in ethanol and then applied with a micro-applicator on the thorax, between the legs: 200 nL of drug per female mosquito, with different concentrations of the drug; 10 mosquitos were treated together per concentration per replicate, and put together in a small container with free access to sweet water. Mortality, i.e. no visible movement, was assessed 24 hours after treatment. Every compound was assessed on at least 3 different cohorts of mosquitoes, and the LD50 values and slopes were determined with Probit analysis, corrected with Abbott's formula.

[3] = system: Anopheles gambiae G3 sensitive strain; assay: Topical toxicity (24 hour mortality), An. gambiae G3; details: topical application, 24 h mortality, female adults, susceptible strain G3
Procedure: as §1, §2

[4] = system: Aedes aegypti strain Orlando (sensitive); assay: Topical toxicity (24 hour mortality), Ae. aegypti Orlando; details: topical application, 24 h mortality, female adults, susceptible Orlando strain
Procedure: as §1, §2

| Structure (SMILES) | 1 h Repellency EC50, μg/cm^2 [1] [μg/cm^2] | 1 h % Repellency, 100 μg/cm^2 [1] [%] | An. gambiae RR (resistance ratio) [2] | An. gambiae AKDR LD50 [2] [ng/mg] | An. gambiae G3 LD50 [3] [ng/mg] | Ae. aegypti OR LD50 [4] [ng/mg] |
| --- | --- | --- | --- | --- | --- | --- |
| C=CC(=O)Nc1ccccc1C(F)(F)F [GMR021] | 32 | 92 |  |  |  |  |
| O=C(Nc1cc(Cl)nc(C(F)(F)F)c1)C(F)F [GMR034] |  |  | 1.1 | 23.8 | 20.8 | 1454 |
| O=C(Nc1cc(Cl)nc(C(F)(F)F)c1)C(F)(F)F [GMR035] |  |  | 1.7 | 52.1 | 30.5 | 106 |
| O=C(Nc1cc(Cl)nc(C(F)(F)F)c1)C(F)(F)C(F)(F)F [GMR036] |  |  | 0.7 | 10.0 | 13.5 | 25 |
| O=C(Nc1cc(Cl)nc(C(F)(F)F)c1)C(F)(F)C(F)(F)C(F)(F)F [GMR037, N-(2-chloro-6-(trifluoromethyl)pyridin-4-yl)-2,2,3,3,4,4,4-heptafluorobutanamide] |  |  | 0.8 | 5.3 | 6.5 | 17 |
| O=C(Nc1cc(Br)nc(Br)c1)C(F)F [GMR039] |  |  | 1.1 | 23.8 | 20.8 | 2253 |
| O=C(Nc1cc(Br)nc(Br)c1)C(F)(F)F [GMR040] |  |  |  | >100 | >100 | 1223 |
| O=C(Nc1cc(Cl)nc(Cl)c1)C(Cl)(Cl)Cl [GMR059] |  |  |  |  |  | 866 |
| O=C(Nc1ccccn1)C(F)(F)C(F)(F)C(F)(F)F [GMR060] |  |  |  |  |  | 1758 |
| CCCCCC(=O)Nc1c(F)c(F)nc(F)c1F [GMR065] |  |  |  | 1225 |  | 1225 |
| O=C(Nc1ccnc(Cl)c1)C(F)(F)C(F)(F)C(F)(F)C(F)(F)C(F)(F)F [GMR068] |  |  |  | 3425 |  | 3425 |
| O=C(Nc1ccnc(C(F)(F)F)c1)C(F)(F)C(F)(F)C(F)(F)C(F)(F)C(F)(F)F [GMR070] |  |  |  | 1261 |  | 1261 |
| COc1cc(NC(=O)C(F)(F)C(F)(F)C(F)(F)C(F)(F)C(F)(F)F)ccn1 [GMR071] |  |  |  |  |  | >2000 |
| Cc1cc(NC(=O)C(F)(F)C(F)(F)C(F)(F)C(F)(F)C(F)(F)F)cc(C)n1 [GMR073] |  |  |  |  |  | >3000 |
| O=C(Nc1cc(Cl)cc(Cl)n1)C(F)(F)C(F)(F)C(F)(F)F [GMR078] |  |  |  | >100 |  | 5668 |
| O=C(Nc1ccc(Cl)cn1)C(F)(F)C(F)(F)C(F)(F)F [GMR079] |  |  |  | >100 |  | >1000 |
| O=C(Nc1ncc(C(F)(F)F)cc1Cl)C(F)(F)C(F)(F)C(F)(F)F [GMR080] |  |  |  | >100 |  | >1000 |
| O=C(Nc1c(F)c(F)nc(F)c1F)C(F)(F)F [GMR081] |  |  |  | >100 |  | 698 |
| O=C1C2=C(CCCC2)C(=O)N1COC(=O)C(F)(F)C(F)(F)C(F)(F)F [GMR096] |  |  |  |  | >100 | 2538 |
| CC(C)(C)OC(=O)N(C(=O)C(F)(F)F)c1cc(Cl)nc(Cl)c1 [GMR119] |  |  |  |  |  | 343 |
| CC(C)CC(=O)Nc1cc(Cl)nc(Cl)c1 [GMR145] |  |  |  |  |  | 775 |
| CCCC(=O)Nc1cccc(OC(F)(F)F)c1 [GMR162] |  | 50 |  | >1000 | >1000 |  |
| CCCC(=O)N(C(=O)CCC)c1cccc(OC(F)(F)F)c1 [GMR163] |  | 50 |  | >1000 | >1000 |  |
| CCCCCC(=O)N(C(=O)CCCCC)c1cccc(OC(F)(F)F)c1 [GMR165] |  | 62 |  |  |  |  |
| CC(=O)N(C(C)=O)c1ccccc1OC(F)(F)F [GMR169] |  | 82 |  | >1000 | >1000 |  |
| CCC(=O)Nc1ccccc1OC(F)(F)F [GMR170] | 15 | 94 |  |  |  |  |
| CCCC(=O)Nc1ccccc1OC(F)(F)F [GMR171] | 29 | 100 |  |  |  |  |
